Where a SMILES comes first, the peptide text is derived from it. The star is where a group is joined. Tos = Cc1ccc(S(=O)(=O)*)cc1; tBu = CC(C)(C)*

The subject of one data set is Experimental Autoimmune (or Allergic) Encephalomyelitis. Nature of the data set: Experimental Autoimmune Encephalomyelitis (EAE) model, motor impairment. The data set is classed as in vivo. The following applies: rats or guinea pigs; treatment from Day 8, bid for five days, SC, PO or IP.
Consider `Cc1ccc(S(=O)(=O)N2CCC[C@H]2C(=O)N[C@@H](Cc2ccc(OC(C)(C)C)cc2)C(=O)O)cc1` [Example 10, N-(Toluene-4-sulfonyl)-L-prolyl-4-(O-tert-butyl)-L-tyrosine] (Tos-Pro-Tyr(tBu)-OH), for which the “active in EAE in vivo assay (delayed the onset of symptoms, e.g. clinical scores no greater than 2 or slowed body weight loss as compared to the control)” value was “active”.

As to “N-(Toluene-4-sulfonyl)-L-(5,5-dimethyl) thiaprolyl-L-(N-benzyl)-histidine [Example 27]”, the “active in EAE in vivo assay (delayed the onset of symptoms, e.g. clinical scores no greater than 2 or slowed body weight loss as compared to the control)” value is recorded as “active”.

Tested on in a further data set: not given
Assay: not given
Conditions: not given
`Cc1ccc(S(=O)(=O)N2CCC[C@H]2C(=O)N[C@@H](C)C(=O)O)cc1` [Example 16, N-(Toluene-4-sulfonyl)-L-prolyl-L-alanine] (Tos-Pro-Ala-OH) registered a melting point of 160.5 to 162.5 °C. Take `Cc1ccc(S(=O)(=O)N2CCC[C@H]2C(=O)N[C@@H](CC(=O)O)C(=O)O)cc1` [Example 19, N-(Toluene-4-sulfonyl)-L-prolyl-L-aspartic acid] (Tos-Pro-Asp-OH): the melting point was 174 to 176 °C. Same read-out and setting: the result for `Cc1ccc(S(=O)(=O)N[C@@H](CCC(=O)O)C(=O)N[C@@H](Cc2ccc(O)cc2)C(=O)O)cc1` [Example 30, N-(Toluene-4-sulfonyl)-L-glutamyl-L-tyrosine] (Tos-Glu-Tyr-OH) reads 173 to 175 °C; that for `Cc1ccc(S(=O)(=O)N2CCC[C@H]2C(=O)N[C@@H](Cc2ccc(OCCN(Cc3ccccc3)Cc3ccccc3)cc2)C(=O)O)cc1` [Example 45, N-(Toluene-4-sulfonyl)-L-prolyl-L-O-[2-(dibenzylamino)ethyl]-tyrosine], 106 to 110 °C; that for `Cc1ccc(S(=O)(=O)N2CCC[C@H]2C(=O)N[C@@H](Cc2ccc(NC(=O)Nc3ccc(C#N)cc3)cc2)C(=O)O)cc1` [Example 49, N-(Toluene-4-sulfonyl)-L-prolyl-L-4-[3-(4-cyanophenyl)-ureido]-phenylalanine], 163 to 165 °C. Same read-out and setting: as for `Cc1ccc(S(=O)(=O)N2CCC[C@H]2C(=O)N[C@@H](Cc2ccc(C(=O)N[C@@H]3Cc4ccccc4C=N3)cc2)C(=O)O)cc1` [Example 52, N-(Toluene-4-sulfonyl)-L-prolyl-L-4[(3S)-3,4-dihydro-isoquinolin-3-yl-aminocarbonyl]-phenylalanine], the figure is 145 to 150 °C; as for `CC(C)OC(=O)[C@H](Cc1ccc(O)cc1)NC(=O)[C@@H]1CCCN1S(=O)(=O)c1cn(C)cn1` [Example 226, N-(1-Methylimidazol-4-sulfonyl)-L-prolyl-(4-hydroxyl)-L-phenylalanine isopropyl ester], 159 to 162 °C.

Values taken from patent US6583139B1, “Compounds which inhibit leukocyte adhesion mediated by VLA-4” (priority 1997, dated 2003).
